Where two headings read alike, the source gives them in different places.

In assay [1] the test system is AKT pathway in PC3 (prostate cancer) cells. The experiment in a line: AKT pathway inhibition by Western blotting in PC3 cells. Type of assay: cell-based, human. The method, then: PC3 cells were obtained from Cell Resource Center for Medical Research of Institute of Development, Aging, and Cancer, Tohoku University. The cells were cultured at 37° C. in the presence of 5% CO2 by using RPMI1640 medium containing inactivated fetal bovine serum at the concentration of 10%.
Western blotting was performed as follows. Various kinds of the cells treated with each compound were collected and lysed in a lysis buffer (500 mM Tris-HCl pH 7.5, 100 mM NaCl, 2 mM EDTA, 1 mM sodium orthovanadate, 1% NP-40, and 1% protease inhibitor cocktail, manufactured by SIGMA-ALDRICH). After centrifugation, the supernatants were collected.
The followings were used as primary antibodies.
As a secondary antibody, “Alexa Fluor680IgG” (trade name, manufactured by Invitrogen) was used. By using “Odyssey Infrared Imaging System” (trade name, manufactured by LI-COR), expression of the protein of interest was determined.
In general terms: Immunoblotting shows a protein as a band on a membrane.

The subject of assay [2] is CO115 cells. The experiment in a line: Cytotoxic effect by MTT assay, CO115. It is filed as cell-based, human. The following applies: CO115, 24 hours. The method, then: (§1) The human culture cells used were colon cancer cell lines (HCT116, CO115, and RKO). HCT116 and RKO were obtained from American Type Culture Collection (ATCC). CO115 was obtained from John M. Mariadason (Ludwig Institute for Cancer Research, Melbourne, Australia). The cells were cultured at 37° C. in the presence of 5% CO2 by using RPMI1640 medium containing inactivated fetal bovine serum at the concentration of 10%.
(§2) After 24 hours, the number of live cells was determined by using “Cell counting kit-8” (trade name, manufactured by DOJINDO CO., LTD). […] The amount of formazan dye and the number of live cells are in proportional relationship, and by measuring the absorbance of formazan at 450 nm using a microplate reader (trade name: “SpectraMax M2e”, manufactured by Molecular Devices), the number of live cells was counted.
In general terms: Tetrazolium dyes change colour on reduction, which living cells bring about.

Assay [3] deals with HDAC1 (Homo sapiens, UniProt Q13547). The following applies: cited from earlier work.
For assay [4], the system named is RKO cells. Briefly: Cytotoxic effect by MTT assay, RKO. Type of assay: cell-based, human. The note with it: 24 hours. The method, then:
as §1, §2

Assay [5] concerns the target T1, PI3K (p110α/p85α) (Homo sapiens, UniProt P42336).
T1 construct: purchased Carna Biosciences, Inc. (Kobe); contract measurement
The experiment in a line: In vitro PI3K inhibitory activity by mobility shift assay (Carna Biosciences). It is filed as biochemical. The method, then: The PI3K (p110α/p85α) inhibitory activity was evaluated at Carna Biosciences, Inc. (Kobe) by mobility shift assay which included isolation and quantification of a substrate and the phosphorylated substrate based on the mobility in a capillary (https://www.carnabio.com/japanese/product/search.cgi?mode=profiling). […] After allowing the reaction to occur for 5 hours at room temperature, the mobility shift assay was performed. The test was performed in duplicate.
Inhibition rate was calculated as follows.
The value of product/substrate+product when an agent was added thereto was calculated similarly, and the inhibition rate was calculated based on a difference from the control value.

Assay [6] concerns the target T2, HDAC6 (Homo sapiens, UniProt Q9UBN7).
T2 sequence (Q9UBN7 1-1215): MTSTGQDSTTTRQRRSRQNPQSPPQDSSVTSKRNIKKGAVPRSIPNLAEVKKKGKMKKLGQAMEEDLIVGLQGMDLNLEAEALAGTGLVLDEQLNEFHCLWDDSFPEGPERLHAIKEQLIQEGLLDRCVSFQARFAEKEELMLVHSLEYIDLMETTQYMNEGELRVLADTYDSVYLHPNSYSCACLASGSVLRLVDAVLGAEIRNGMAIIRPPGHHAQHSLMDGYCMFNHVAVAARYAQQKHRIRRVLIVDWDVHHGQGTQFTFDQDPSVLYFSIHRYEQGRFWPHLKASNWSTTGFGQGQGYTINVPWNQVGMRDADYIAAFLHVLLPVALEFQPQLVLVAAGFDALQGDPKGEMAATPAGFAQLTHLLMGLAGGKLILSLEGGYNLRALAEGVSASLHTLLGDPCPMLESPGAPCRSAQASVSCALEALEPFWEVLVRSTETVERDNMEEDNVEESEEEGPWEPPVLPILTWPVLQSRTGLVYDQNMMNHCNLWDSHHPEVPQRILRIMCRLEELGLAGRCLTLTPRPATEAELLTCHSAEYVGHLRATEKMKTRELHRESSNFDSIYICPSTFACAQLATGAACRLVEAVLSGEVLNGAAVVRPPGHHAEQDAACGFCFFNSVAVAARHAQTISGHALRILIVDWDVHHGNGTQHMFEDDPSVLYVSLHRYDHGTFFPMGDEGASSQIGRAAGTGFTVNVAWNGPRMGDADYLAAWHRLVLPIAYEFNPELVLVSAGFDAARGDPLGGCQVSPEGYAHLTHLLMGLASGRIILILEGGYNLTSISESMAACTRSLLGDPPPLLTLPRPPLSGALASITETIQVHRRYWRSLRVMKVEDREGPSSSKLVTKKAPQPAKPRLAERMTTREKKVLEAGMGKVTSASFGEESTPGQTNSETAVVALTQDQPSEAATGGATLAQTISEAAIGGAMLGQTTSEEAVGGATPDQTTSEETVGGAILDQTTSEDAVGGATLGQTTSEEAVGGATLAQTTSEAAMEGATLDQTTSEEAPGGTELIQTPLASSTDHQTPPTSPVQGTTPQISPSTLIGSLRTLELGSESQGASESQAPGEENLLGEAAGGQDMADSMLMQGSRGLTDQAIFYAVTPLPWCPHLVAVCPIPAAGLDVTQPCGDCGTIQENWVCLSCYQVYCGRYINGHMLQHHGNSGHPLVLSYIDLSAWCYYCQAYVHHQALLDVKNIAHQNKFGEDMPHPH
The note with it: Table 2; cited from earlier work.

In assay [7] the test system is HCT116 cells. The experiment in a line: FACS cell cycle analysis in HCT116 cells. It is filed as cell-based, human. The following applies: HCT116, 24 hours; SAHA 2.5 μM, LY294002 50 μM, FK228 or FK-A5 at low concentration. The method, then: The cells were collected, fixed with ethanol, stained with iodopropidium/PBS solution, and analyzed by using “Cytomics FC500 Flow Cytometry System” (trade name, manufactured by Beckman Coulter). The cell cycle fractions were calculated by using “Multicycle software” (trade name, manufactured by Phenomix Flow Systems).

The target of assay [8] is T3, human p110α expressed in budding yeast (Homo sapiens, UniProt P42336).
T3 construct: expressed in transfected cells; host or cells: Saccharomyces cerevisiae AD1-9 (LEU2-disrupted), galactose-induced
Briefly: Screening of PI3K inhibitor using budding yeast (recovery from cell proliferation disorder caused by p110α). The note with it: AD1-9 transformant expressing p110α, compound 5 μM, 24 hours, average of three tests. It is filed as cell-based. The method, then: AD1-9 strain can be obtained from Nader Nourizad (Stanford Genome Technology Center Stanford University, CA, USA).
The transformed AD 1-9 strain was cultured at 30° C. in a minimal complete medium SC-U-L containing no uracil and leucine or SGal-U-L in which 2% glucose was replaced with 2% galactose.
By using the aforementioned system, screening of the compound library, which was obtained from the Screening committee of anticancer drugs supported by grant-in-aid for scientific research on priority area “Cancer” from Ministry of Education, Culture, Sports, Science, and Technology, Japan, was performed. Each compound was added to SGal-U-L liquid medium to constitute a concentration of 0.5 μM or 5 μM and the transformant of AD 1-9 was cultured for 24 hours under shaking. Thereafter, A600 was measured. […] Three independent tests were repeatedly performed to calculate the average value of A600.

The test system of assay [9] is HCT116 cells. The experiment in a line: Cytotoxic effect by MTT assay, HCT116. It is filed as cell-based, human. The following applies: HCT116, 24 hours. The method, then:
as §1, §2

T1 sequence (P42336 whole entry): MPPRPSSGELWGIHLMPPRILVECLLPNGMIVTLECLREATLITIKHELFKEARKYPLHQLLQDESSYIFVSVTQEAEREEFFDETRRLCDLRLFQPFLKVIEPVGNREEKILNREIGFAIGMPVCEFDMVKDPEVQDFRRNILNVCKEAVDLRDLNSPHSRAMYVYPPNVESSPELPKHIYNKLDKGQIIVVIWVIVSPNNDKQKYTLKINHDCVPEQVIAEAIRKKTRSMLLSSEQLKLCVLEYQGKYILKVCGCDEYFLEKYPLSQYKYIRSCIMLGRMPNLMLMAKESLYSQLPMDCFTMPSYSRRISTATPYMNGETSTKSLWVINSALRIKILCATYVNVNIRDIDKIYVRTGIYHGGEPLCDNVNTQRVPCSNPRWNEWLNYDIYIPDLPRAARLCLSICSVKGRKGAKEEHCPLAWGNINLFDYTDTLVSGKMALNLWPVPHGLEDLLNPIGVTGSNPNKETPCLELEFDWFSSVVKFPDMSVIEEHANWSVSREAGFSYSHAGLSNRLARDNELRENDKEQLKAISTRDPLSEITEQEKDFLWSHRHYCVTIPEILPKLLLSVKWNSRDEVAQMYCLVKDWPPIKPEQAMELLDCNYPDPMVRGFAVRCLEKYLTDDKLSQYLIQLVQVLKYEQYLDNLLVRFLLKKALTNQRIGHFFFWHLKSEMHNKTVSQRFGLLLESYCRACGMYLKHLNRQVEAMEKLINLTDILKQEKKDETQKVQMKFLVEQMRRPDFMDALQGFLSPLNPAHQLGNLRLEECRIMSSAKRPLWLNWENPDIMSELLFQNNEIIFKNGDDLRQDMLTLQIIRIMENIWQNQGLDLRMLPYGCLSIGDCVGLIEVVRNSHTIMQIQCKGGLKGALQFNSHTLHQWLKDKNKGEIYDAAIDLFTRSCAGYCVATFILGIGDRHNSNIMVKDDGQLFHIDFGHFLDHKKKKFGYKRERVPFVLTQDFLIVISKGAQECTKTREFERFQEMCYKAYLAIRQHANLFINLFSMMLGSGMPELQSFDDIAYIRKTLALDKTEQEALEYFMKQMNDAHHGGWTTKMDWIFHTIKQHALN
T1 sequence (P27986 whole entry partner): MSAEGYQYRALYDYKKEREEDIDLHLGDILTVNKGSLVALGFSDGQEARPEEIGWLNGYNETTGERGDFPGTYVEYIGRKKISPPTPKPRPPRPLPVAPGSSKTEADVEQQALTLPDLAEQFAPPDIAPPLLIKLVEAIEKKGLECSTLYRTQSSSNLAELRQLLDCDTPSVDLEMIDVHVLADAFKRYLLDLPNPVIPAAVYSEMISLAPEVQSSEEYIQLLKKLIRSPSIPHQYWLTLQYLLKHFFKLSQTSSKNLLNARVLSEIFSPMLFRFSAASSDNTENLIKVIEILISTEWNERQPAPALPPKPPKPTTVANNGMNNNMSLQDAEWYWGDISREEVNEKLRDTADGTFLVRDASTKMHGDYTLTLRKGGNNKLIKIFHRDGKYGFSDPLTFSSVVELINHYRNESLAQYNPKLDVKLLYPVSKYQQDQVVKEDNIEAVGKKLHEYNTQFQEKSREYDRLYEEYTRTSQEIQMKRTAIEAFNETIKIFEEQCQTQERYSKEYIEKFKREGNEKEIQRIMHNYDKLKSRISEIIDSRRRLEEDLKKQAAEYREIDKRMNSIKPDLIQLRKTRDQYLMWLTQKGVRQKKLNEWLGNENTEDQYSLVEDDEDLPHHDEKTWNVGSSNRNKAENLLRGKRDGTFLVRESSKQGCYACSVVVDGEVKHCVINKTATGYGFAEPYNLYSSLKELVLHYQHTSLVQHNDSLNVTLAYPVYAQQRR
HDAC1, sequence (Q13547 whole entry, species assumed): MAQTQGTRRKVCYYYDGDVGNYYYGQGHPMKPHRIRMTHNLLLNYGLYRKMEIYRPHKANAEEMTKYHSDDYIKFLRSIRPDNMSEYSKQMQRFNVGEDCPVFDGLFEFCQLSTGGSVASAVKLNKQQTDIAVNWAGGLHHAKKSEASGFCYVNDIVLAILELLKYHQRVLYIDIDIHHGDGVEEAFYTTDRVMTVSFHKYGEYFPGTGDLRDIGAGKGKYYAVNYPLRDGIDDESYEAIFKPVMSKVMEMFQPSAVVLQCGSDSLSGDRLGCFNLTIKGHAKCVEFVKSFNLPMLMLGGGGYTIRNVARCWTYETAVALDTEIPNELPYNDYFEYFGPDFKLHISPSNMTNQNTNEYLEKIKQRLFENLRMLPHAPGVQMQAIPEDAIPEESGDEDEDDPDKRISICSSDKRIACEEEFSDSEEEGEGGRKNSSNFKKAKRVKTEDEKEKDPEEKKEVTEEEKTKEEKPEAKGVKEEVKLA
T3 sequence (P42336 whole entry): as the sequence (P42336 whole entry) above

On to `CC(C)[C@H]1NC(=O)CC2/C=C/CCSSCC(NC1=O)C(=O)N[C@H](Cc1ccccc1)C(=O)NCC(=O)O2` (stereo in doubt) [FK-A5], for which, in assay [1] (10 μM, 5 to 180 minutes), the “expression level of phosphorylated AKT (Ser-473, Thr-308) over time” value is reported as “lowered the expression level of phosphorylated AKT (Ser-473, Thr-308)”. The “phosphorylated ERK1/2” value in assay [1] (180 minutes) is given as “slightly inhibited”. For the same compound, in assay [1] (180 minutes), the “phosphorylated MEK1/2” value was “not inhibited”. For the same compound, the “expression levels of phosphorylated AKT, GSK-3β, mTOR, p70S6K and 4E-BP1” value in assay [1] (180 minutes, varying concentration) is recorded as “inhibited in a concentration dependent manner”. For the same compound, the “number of cells at high concentration” value in assay [2] (μM levels), in assay [4] (μM levels) and in [9] (μM levels) was “very significantly reduced the number of cells” in each case. Besides, the IC50 is 0.0025 µM in [3] (Table 2); 0.0025 µM in assay [3] (Table 3); 26.2 µM in assay [5] (50 μM ATP, read-out: IC50 for PI3K); 27.3 µM in assay [5] (Table 3, PI3K (p110α/p85α), read-out: PI3K IC50); 1.6 µM in assay [6]. Besides, in [5] (compound 20 μM, 50 μM ATP), the “PI3K activity inhibitory rate” value is reported as “higher inhibition rate than FK228”. In addition, in [5] (compound 20 μM, 50 μM ATP, read-out: PI3K activity inhibitory rate), the inhibition at 20 µM was found to be 66.8%. In addition, the cell cycle arrest entry in assay [7] is “induced cell cycle arrest, predominantly at G2/M phase”. Further, the A600 in assay [8] is listed as 0.449.
For the compound `CC(C)[C@H]1NC(=O)CC2/C=C/CCSSCC(NC1=O)C(=O)N[C@H](Cc1cccc3ccccc13)C(=O)NCC(=O)O2` (stereo partly drawn) [FK-A11], the “inhibition of AKT phosphorylation compared with FK-A5 and FK228” value in [1] (180 minutes) is “occurred at a lower concentration than FK-A5 and FK228”. For the same compound, the cell death result in [2] (from 500 nM) is “strong cell death”; in [2] (up to 50 nM), “resistant”; in assay [4] (5 nM to 500 nM) it was “significant cell death”; in [9] (5 nM to 500 nM), “significant cell death”.

The IC50 is the midpoint of a concentration-inhibition curve.
